Legend:
mice backs (skin) = details: topical application to mice backs; cited from earlier work
[1] = tested on: inflammation of mice ears caused by calcium ionophore (A-23187); experiment: Anti-inflammatory activity on inflammation of mice ears caused by calcium ionophore A-23187 (Examples 4-7); format: in vivo, male outbred hairless mice; details: for Reduction in Edema (%) / Reduction in Erythema (%): Table I, 1.5 micromole topically to ear 30 min after 4.0 nmole A-23187, assessed at 4 hrs; for anti-inflammatory activity (in words): at the concentration used (1.5 micromole), data of Table 1; for reduction of inflammation (in words): topical, 30 minutes after application of ionophore A-23187
Text: In a group of 5 male outbred hairless mice, inflammation is induced on their ears by the topical application thereto of 4.0 nmole in acetone solution (total volume 10 microliter) of the known divalent calcium ionophore (antibiotic A-23187), which is derived from streptomyces chartreusis and is a member of a known class of compounds having ionophoric activity. See, e.g. Pressman, B. C., "Biological Applications of Ionophores", Ann. Rev. Biochem., 45, 501, 1976. […] See Marks, F., Furstenberger, G., and Kownatzki, E., "Prostaglandin E-mediated Mitogenic Stimulation of Mouse Epidermis in vivo by divalent cation ionophore A-23187 and by tumor promoter 12-O-tetradecanoyl phorbol-13-acetate, Cancer Res., 41, 696, 1981.
In each animal only one ear is treated, the other untreated ear serving as a control.
In Examples 4, 5 and 6 the compounds AN-10, APCF3-8 and AMCF3-8, respectively, are topically applied to the treated ears of different groups of five male outbred hairless mice 30 minutes following the topical application thereto of the ionophore A-23187. Specifically, 1.5 micromole of the amido compound in acetone solution (total volume 10 microliters) is applied topically to treated male outbred hairless mice ears 30 min. after topical application thereto of a calcium ionophore (A-23187, 4.0 nmole total volume to 10 microliter) in acetone. As already noted, in each case, each animal serves as its own control in that only one ear is subjected to said test regime while the other ear is left untouched. Erythema and edema are assessed 4 hrs. after application of the ionophore. In Control Example 7, 3,4',5-tribromosalicylanilide (TBS) is applied in the same manner.

[2] = tested on: ears of hairless outbred mice inflamed with A-23187; experiment: Reduction in edema of A-23187 inflamed mouse ears by ear weight (Examples 8-14, Studies A and B); format: in vivo, young, male, adult hairless outbred mice (Skh:hr-1 strain); details: for Reduction in Edema (%): sacrificed at four hours; for anti-inflammatory activity (in words): under the test conditions, data of Table 2
Text: (§1) Acute inflammation is induced by the application of 4 nano mole of the antibiotic A-23187 to the ears of young, male, adult hairless outbred mice (Skh:hr-1 strain). Thereafter, one of the compounds AN-10, AMCF3-8, ACBXE-9, acryloyl AN-10, S-4-F and SAN-6 is applied to the affected ears and the degree of reduction in edema (inflammation) noted.
The method used in the subject Examples differs from the method used in the preceding Examples (4 through 7) in two respects.
(§2) Secondly, in the expression of the data, the objective parameter of ear weights is used as the sole data source (for the reduction of edema) as erythematous responses are not recorded. Ear weights are determined by sacrificing the animals four hours after initial application of the antibiotic A-23187 or other control material by the use of CO2 gas. Thereafter, the ears are excised by cutting along the characteristic ridge readily discernible along the inner aspect of the ears. Wet and dry ear weights are used to determine the extent of the edema or inflammation present.
In Study A, 28 test animals are randomized into four treatment groups of seven each and subjected to the following ear treatment regimen:
Each animal is dosed with a treatment consisting of a 10 microliter quantity of the assigned test material solution (or pure acetone in the case of the animals of Group D) applied to the outer aspect of both ears, i.e., 10 microliter of test material per ear. The concentrations of the respective materials in acetone solution are such that a 10 microliter dose of a solution of the antibiotic A-23187 contains 4 nano mole of such antibiotic. The corresponding quantity in the case of the AN-10 in acetone solution is 1.5 micromole. The animals of Groups A and B are initially treated with the acetone solution of A-23187. In the case of the animals of Group B alone, 10 microliter of the acetone solution of AN-10 is applied to the affected ears 1/2 hour after the application of the above-mentioned quantity of a solution in acetone of the antibiotic A-23187. The animals of Group C receive a 10 microliter dose per ear of the AN-10 in acetone solution alone. The animals of Group D receive a dose of 10 microliter per ear of pure acetone. All the test subjects are sacrificed four hours after the application of A-23187 to the animals of Groups A and B or the other test materials in the case of the animals of Groups C and D. The results are summarized in Table 2 noted below.
(§3) A second group of studies (Study B) is conducted on two consecutive days with two sets of mice (totalling […]) received from the same shipment.
On Day 2, using the second set of 40 mice, sub-divided into 8 groups of 5 each, the six compounds in question are applied as acetone solutions in the manner described under Study A to mice ears inflamed with A-23187 again, as described in Study A above. As with the studies conducted on Day 1, the remaining two groups of 5 animals each serve as controls and their ears are dosed with A-23187 and acetone respectively.
(§4) The amount of each salicylamide compound applied is kept constant, for Days 1 and 2, at 1.5 micromole per 10 microliter of test solution. Sacrifice begins four hours after application A-23187, on both days, and the results are recorded. Table 2 summarizes the results of the regimen of testing involved with each one of the 30 animals in question on Day 2 with the remaining 10 animals serving as controls as already noted.

untreated ears of mice = experiment: Inflammatory potential of the compounds on untreated mouse ears (Study B, Day 1); format: in vivo, young, male, adult hairless outbred mice (Skh:hr-1 strain); details: 1.5 micromole per 10 microliter on untreated ears
Text: as §1, §2, §3
The first batch of 40 animals is divided into […] of 5 each. […] The remaining two groups of 5 animals each serve as controls and their ears are dosed with A-23187 and acetone respectively.
as §4

[3] = tested on: Osborne-Mendel white rats; details: single dose oral route, female Osborne-Mendel white rats; cited from earlier work
rats = details: comparable toxicity for aspirin; cited from earlier work
[4] = Study B, Day 2, 1.5 micromole per 10 microliter, A-23187 inflamed ears

Structure (SMILES)	Reduction in Edema (%) [2, 4] [%]	anti-inflammatory activity (in words) [2]	noticeable inflammation caused by the compound alone (untreated ears of mice)	Reduction in Edema (%) [1] [%]	Reduction in Erythema (%) [1] [%]	anti-inflammatory activity (in words) [1]	further results
CNc1ccc2oc(C[C@H]3O[C@@]4(CC[C@H]3C)O[C@H]([C@H](C)C(=O)c3ccc[nH]3)[C@H](C)C[C@H]4C)nc2c1C(=O)O [A-23187, reference compound]							skin irritation (in words) (mice backs (skin)): potent ability to cause skin irritation with white blood cell infiltration, erythema (skin reddening), edema, epidermal hypertrophy and subsequent epidermal hyperplasia; acute inflammation on treated mice ears (in words) ([1]; topical application of A-23187, time and dose dependent): Acute inflammation develops on treated mice ears within 4 hours
CCCCCCCCC(=O)c1ccc(O)c(C(=O)Nc2cccc(C(=O)OCC)c2)c1 [ACBXE-9]	76	significant anti-inflammatory activity	none of the six compounds being tested cause any noticeable inflammation				
CCCCCCCC(=O)c1ccc(O)c(C(=O)Nc2cccc(C(F)(F)F)c2)c1 [AMCF3-8]	81	significant anti-inflammatory activity	none of the six compounds being tested cause any noticeable inflammation	80	76	effective anti-inflammatories	more edema reduction activity of the meta isomer than the para isomer ([1]; AMCF3-8 versus APCF3-8): about 30%; more erythema reduction activity of the meta isomer than the para isomer ([1]; AMCF3-8 versus APCF3-8): about 20%
CCCCCCCCCC(=O)c1ccc(O)c(C(=O)Nc2ccc([N+](=O)[O-])cc2)c1 [AN-10]	81	significant anti-inflammatory activity	none of the six compounds being tested cause any noticeable inflammation	59	59	effective anti-inflammatories	Reduction in Edema (%) ([2]; Study A, 1.5 micromole per ear 1/2 hour after 4 nano mole A-23187): 55%; LD50 [3]: greater than 2000 mg./kg.
CCCCCCCC(=O)c1ccc(O)c(C(=O)Nc2ccc(C(F)(F)F)cc2)c1 [APCF3-8]				48	57	effective anti-inflammatories	
CCCCc1ccc(O)c(C(=O)Nc2cccc(C(F)(F)F)c2)c1 [S-4-F]	70	significant anti-inflammatory activity	none of the six compounds being tested cause any noticeable inflammation				
CCCCCCc1ccc(O)c(C(=O)Nc2ccc([N+](=O)[O-])cc2)c1 [SAN-6]	59	significant anti-inflammatory activity	none of the six compounds being tested cause any noticeable inflammation				
O=C(Nc1ccc(Br)cc1)c1cc(Br)cc(Br)c1O [TBS, 3,4',5-tribromosalicylanilide, reference compound]				12	35	essentially inactive	
C=CC(=O)Oc1ccc(C(=O)CCCCCCCCC)cc1C(=O)Nc1ccc([N+](=O)[O-])cc1 [acryloyl AN-10]	82	significant anti-inflammatory activity	none of the six compounds being tested cause any noticeable inflammation				
CC(=O)Oc1ccccc1C(=O)O [aspirin, acetylsalicylic acid]							LD50 (rats): about 1.75 g/kg. body weight
C[C@]12CCC(=O)C=C1CC[C@@H]1[C@@H]2[C@@H](O)C[C@@]2(C)[C@H]1CC[C@]2(O)C(=O)CO [hydrocortisone, reference compound]							reduction of inflammation (in words) [1]: reduction of inflammation
COc1ccc2c(c1)c(CC(=O)O)c(C)n2C(=O)c1ccc(Cl)cc1 [indomethacin, reference compound]							reduction of inflammation (in words) [1]: reduction of inflammation

Reference: patent US4560549A, “Method of relieving pain and inflammatory conditions employing substituted salicylamides” (Lever Brothers Company, priority 1983, dated 1985)
